Test results: patent US20240050463A1, “THERAPEUTIC COMPOSITIONS AND METHODS FOR TREATING HEPATITIS B” (ARBUTUS BIOPHARMA CORPORATION, priority 2016, published 2024)

Assays:
[1] = tested on: hepatitis B virus (HBV); test: Serum HBsAg in mouse model of HBV (pAAV/HBV1.2 hydrodynamic injection), enzyme immunoassay; type: in vivo, C3H/HeN mice; settings: HBV siRNA 1 mg/kg IV Days 0, 7, 14, poly(I:C) 20 μg HDI Day 0, mean ± SEM
From the text: A mouse model of hepatitis B virus (HBV) was used to assess the anti-HBV effects of an immune stimulant and HBV-targeting siRNAs, both as independent treatments and in combination with each other.
(§1) This plasmid carries a 1.2-fold overlength copy of a HBV genome and expresses HBV surface antigen (HBsAg) amongst other HBV products. Serum HBsAg expression in mice was monitored using an enzyme immunoassay. Animals were sorted (randomized) into groups based on serum HBsAg levels such that a) all animals were confirmed to express HBsAg and b) HBsAg group means were similar to each other prior to initiation of treatments.
Animals were treated with immune stimulant as follows: On Day 0, 20 micrograms of high molecular weight polyinosinic:poly cytidylic acid (poly(I:C)) was administered via HDI. Animals were treated with lipid nanoparticle (LNP)-encapsulated HBV-targeting siRNAs as follows: On each of Days 0, 7 & 14, an amount of test article equivalent to 1 mg/kg siRNA was administered intravenously. A negative control group was included as the HBsAg expression level is not completely stable in this mouse model of HBV; the absolute concentration of serum HBsAg generally declines over time in individual animals.
The effect of the treatments was determined by collecting a small amount of blood on Days 0 (pre-treatment), 3, 7, 14 & 21 and analyzing it for serum HBsAg content. Samples were diluted as appropriate to generate values within the assay range of quantitation where possible. Individual values falling below the lower limit of quantitation (LLOQ) were set as one-half the LLOQ.

[2] = tested on: hepatitis B virus (HBV); test: Serum HBsAg in AAV1.2 mouse model of HBV, enzyme immunoassay; type: in vivo, C57/Bl6 mice; settings: D0 (pre-treatment); Compound 20 3.0 mg/kg oral twice daily Days 0-28; HBV siRNA 0.3 mg/kg IV Day 0
Description: as §1, with “This viral vector contains” for “This plasmid carries”, “of the” for “of a”
Animals were treated with Compound 20 as follows: Starting on Day 0, a 3.0 mg/kg dosage of Compound 20 was administered orally to animals on a twice-daily frequency for a total of 56 doses between Days 0 and 28. Compound 20 was dissolved in a co-solvent formation for administration. Negative control animals were administered either the co-solvent formulation alone, or were not treated with any test article. Animals were treated with lipid nanoparticle (LNP)-encapsulated HBV-targeting siRNAs as follows: On Day 0, an amount of test article equivalent to 0.3 mg/kg siRNA was administered intravenously. The HBsAg expression levels for each treatment were compared against the Day 0 (pre-dose) values for that group.
The effect of these treatments was determined by collecting blood on Days 0 (pre-treatment), 7, 14, and 28 and analyzing it for serum HBsAg content.

[3] = tested on: HBeAg, D type HBV in primary human hepatocytes (PHH); test: microbe, parasite or virus in culture; type: cell-based
Description: (§2) The mouse liver perfusion was applied to isolate PHHs. The isolated hepatocytes were further purified by Percoll. The cells were resuspended with culture media and seeded into the 96-well plates (6×10^4 cell/well) or 48-well plates (1.2×10^5 cell/well). The PHHs were infected with a D type HBV one day post seeding (day 1).
(§3) On day 2, the test compounds were diluted and added into the cell culture plates. The culture media containing the compounds were refreshed every other day. The cell culture supernatants were collected on day 8 for the HBV DNA and antigen determinations.
(§4) The compounds were tested at 7 concentrations, 3-fold dilution, in triplicate.
(§5) Two compounds were tested at 5×5 matrix, in triplicate plates.
(§6) HBsAg/HBeAg in the culture supernatants harvested on days 8 were measured by the HBsAg/HBeAg ELISA kit (Autobio) according to the manual. The samples were diluted with PBS to get the signal in the range of the standard curve. The inhibition rates were calculated with the formula below. The combination effect was analyzed by the MacSynergy software.
% Inh. HBeAg=[1−HBeAg quantity of sample/HBV quantity of DMSO control]×100.

[4] = tested on: D type HBV in primary human hepatocytes (PHH); test: HBV DNA in culture supernatants of HBV-infected primary human hepatocytes (qPCR), MacSynergy; type: cell-based; settings: for AVERAGE % INHIBITION, HBV DNA: COMPOUND 3 0.00 nM; for AVERAGE % INHIBITION: HBV DNA, COMPOUND 22 0.00 nM
Description: as §2, §3, §4, §5
DNA in the culture supernatants harvested on days 8 were isolated with QIAamp 96 DNA Blood Kit (Qiagen-51161). For each sample, 100 μl of the culture supernatants was used to extract DNA. The DNA was eluted with 100 μl, 150 μl or 180 μl of AE. HBV DNA in the culture supernatants was quantified by qPCR. The combination effect was analyzed by the MacSynergy software. The primers are described below.

[5] = tested on: HBsAg, D type HBV in primary human hepatocytes (PHH); test: microbe, parasite or virus in culture; type: cell-based; settings: for AVERAGE % INHIBITION, HBsAg: COMPOUND 3 0.00 nM; for AVERAGE % INHIBITION: HBsAg, COMPOUND 22 0.00 nM
Description: as §2, §3, §4, §5, §6
% Inh. HBsAg=[1−HBsAg quantity of sample/HBV quantity of DMSO control]×100.

[6] = tested on: HBV rcDNA in HepDE19 cells; test: Inhibition of rcDNA in HepDE19 cells (bDNA assay), checkerboard, MacSynergy II; type: cell-based, HBV (human hepatoma cell line); settings: Hepatitis B virus, HepDE19, read-out: ADDITIVE INHIBITION
Description: In vitro combination studies were conducted using the method of Prichard and Shipman (Prichard M N, and Shipman C Jr., Antiviral Research, 1990, 14(4-5), 181-205; and Prichard M N, et. al., MacSynergy II). HepDE19 cell culture system is a HepG2 (human hepatocarcinoma) derived cell line that supports HBV DNA replication and cccDNA formation in a tetracycline (Tet)-regulated manner and produces HBV rcDNA and a detectable reporter molecule dependent on the production and maintenance of cccDNA (Guo et al 2007. J. Virol 81:12472-12484). HepDE19 (50,000 cells/well) were plated in 96 well collagen-coated tissue-culture treated microtiter plates in DMEM/F12 medium supplemented with 10% fetal bovine serum, 1% penicillin-streptomycin and 1 μg/ml tetracycline and incubated in a humidified incubator at 37° C. and 5% CO2 overnight. Next day, the cells were switched to fresh medium without tetracycline and incubated for 4 hrs at 37° C. and 5% CO2. […] The two inhibitors were tested both singly as well as in combinations in a checkerboard fashion such that each concentration of inhibitor A was combined with each concentration of inhibitor B to determine their combination effects on inhibition of rcDNA production. Following a 7 day-incubation of cells with compound combinations, the level of rcDNA present in the inhibitor-treated wells was measured using a Quantigene 2.0 bDNA assay kit (Affymetrix, Santa Clara, CA) with HBV specific custom probe set and manufacturers instructions. […] The RLU data from the single compound treated cells were analyzed using XL-Fit module in Microsoft Excel to determine EC50 values using a 4-parameter curve fitting algorithm. Concurrently, the effect of compounds on cell viability was assessed using replicate plates, plated at a density of 5,000 cells/well and incubated for 4 days, to determine the ATP content as a measure of cell viability using the cell-titer glo reagent (CTG; Promega Corporation, Madison, WI) as per manufacturer's instructions.
In vitro combination studies were conducted using the method of Prichard and Shipman (Prichard M N, Shipman C, Jr., Antiviral Res, 14, 181-205 (1990)). The HepDE19 cell line was developed as described in Guo et al. (Guo et al., J Virol, 81, 12472-12484 (2007)). It is a human hepatoma cell line stably transfected with the HBV genome, and which can express HBV pregenomic RNA and support HBV rcDNA (relaxed circular DNA) synthesis in a tetracycline-regulated manner. HepDE19 cells were plated in 96 well tissue-culture treated microtiter plates in DMEM/F12 medium supplemented with 10% fetal bovine serum+1% penicillin-streptomycin without tetracycline and incubated in a humidified incubator at 37° C. and 5% CO2 overnight. […] The two inhibitors were tested both singly as well as in combinations in a checkerboard fashion such that each concentration of inhibitor A was combined with each concentration of inhibitor B to determine their combination effects on inhibition of rcDNA production. Following a 48 hour-incubation, the level of rcDNA present in the inhibitor-treated wells was measured using a bDNA assay (Affymetrix) with HBV specific custom probe set and manufacturers instructions. […] Concurrently, the effect of inhibitor combinations on cell viability was assessed using replicate plates that were used to determine the ATP content as a measure of cell viability using the Cell-TiterGlo reagent (Promega) as per manufacturer's instructions.
In vitro combination studies were conducted using the method of Prichard and Shipman (1990) (Prichard M N, Shipman C, Jr. 1990. A three-dimensional model to analyze drug-drug interactions. Antiviral Res 14:181-205 AND Prichard M N. 1992. MacSynergy II, University of Michigan).

[7] = Hepatitis B virus, Hepatocyte, read-out: AVERAGE % INHIBITION (HBeAg)
[8] = Hepatitis B virus, Hepatocyte, read-out: AVERAGE % INHIBITION (HBV DNA)
[9] = Hepatitis B virus, Hepatocyte, read-out: AVERAGE % INHIBITION (HBsAg)

Molecule: polyinosinic:poly cytidylic acid [Poly(I:C)]
- Serum HBsAg as percentage of individual pre-treatment baseline ([1]; Day 0 (pre-treatment)): 100 ± 0%
- Serum HBsAg as percentage of individual pre-treatment baseline ([1]; Day 3): 6.1 ± 1.1%
- Serum HBsAg as percentage of individual pre-treatment baseline ([1]; Day 7): 3.5 ± 1.1%
- Serum HBsAg as percentage of individual pre-treatment baseline ([1]; Day 14): 3.9 ± 1.4%
- Serum HBsAg as percentage of individual pre-treatment baseline ([1]; Day 21): 4.7 ± 2.3%

Molecule: COCCCOc1cc2c(cc1OC)-c1cc(=O)c(C(=O)O)cn1[C@H](C(C)C)C2 [Compound 20]
- Serum HBsAg, percentage of individual animal pre-treatment baseline value at Day 0 (mean ± SEM) [2]: 100 ± 0%

Molecule: COCCCOc1cc2c(cc1OC)-c1cc(=O)c(C(=O)O)cn1C(C(C)C)C2 (stereo not drawn) [Compound 25]
- AVERAGE % INHIBITION, HBeAg ([3]; COMPOUND 25 […], COMPOUND 3 0.00 nM): 4.51%
- AVERAGE % INHIBITION ([3]; HBeAg, COMPOUND 25 […], COMPOUND 22 0.00 nM): 14.98%
- AVERAGE % INHIBITION, HBV DNA ([4]; COMPOUND 25 0.12 nM): −20.98%
- AVERAGE % INHIBITION, HBV DNA ([4]; COMPOUND 25 0.37 nM): −51.8%
- AVERAGE % INHIBITION, HBV DNA ([4]; COMPOUND 25 3.33 nM): 15.24%
- AVERAGE % INHIBITION, HBV DNA ([4]; COMPOUND 25 10.00 nM): 28%
- AVERAGE % INHIBITION, HBV DNA ([4]; COMPOUND 25 […]): 5.69%
- AVERAGE % INHIBITION ([4]; COMPOUND 25 0.12 nM): −42.82%
- AVERAGE % INHIBITION ([4]; COMPOUND 25 0.37 nM): −46.48%
- AVERAGE % INHIBITION ([4]; COMPOUND 25 3.33 nM): 16.41%
- AVERAGE % INHIBITION ([4]; COMPOUND 25 10.00 nM): 37.39%
- AVERAGE % INHIBITION ([4]; COMPOUND 25 […]): −19.21%
- AVERAGE % INHIBITION, HBsAg ([5]; COMPOUND 25 0.37 nM): −5.09%
- AVERAGE % INHIBITION, HBsAg ([5]; COMPOUND 25 […]): −3.18%
- AVERAGE % INHIBITION ([5]; COMPOUND 25 0.37 nM): 12.93%
- AVERAGE % INHIBITION ([5]; COMPOUND 25 […]): 26.4%

Molecule: CC(C)OC(=O)[C@H](C)N[P@](=O)(CO[C@H](C)Cn1cnc2c(N)ncnc21)Oc1ccccc1 [TAF, tenofovir alafenamide]
- inhibition at 50 pM [3, 7]: 1.17%
- inhibition at 0.00014 µM [3, 7]: -2.78%
- inhibition at 0.00041 µM [3, 7]: 1.76%
- inhibition at 0.00123 µM [3, 7]: 9.91%
- inhibition at 0.0037 µM [3, 7]: 11.9%
- inhibition at 0.00012 µM [4, 8]: -2.6%
- inhibition at 0.00037 µM [4, 8]: -1.92%
- inhibition at 0.00333 µM [4, 8]: 40.2%
- inhibition at 0.01 µM [4, 8]: 50.2%
- AVERAGE % INHIBITION, HBV DNA ([4]; TAF 0.05 nM): −8.77%
- AVERAGE % INHIBITION, HBV DNA ([4]; TAF 0.41 nM): 28.78%
- AVERAGE % INHIBITION, HBV DNA ([4]; TAF 1.23 nM): 63.39%
- AVERAGE % INHIBITION, HBV DNA ([4]; TAF 3.70 nM): 78.31%
- inhibition at 0.0007813 µM [6]: -4.76%
- inhibition at 0.0015625 µM [6]: 3.49%
- inhibition at 0.000123457 µM [5, 9]: 29.8%
- inhibition at 0.00037037 µM [5, 9]: 10.8%
- inhibition at 0.00111111 µM [5, 9]: 20.8%
- inhibition at 0.00333333 µM [5, 9]: 9.06%
- inhibition at 0.01 µM [5, 9]: 7.97%
